# Experimental data reported in patent US20020165221A1, “Mediators of hedgehog signaling pathways, compositions and uses related thereto” (priority 2000, published 2002).
# How the values were obtained:
# [1] = test system: Patched pathway (X-gal, gli-1 mRNA, BCC-like structures); experiment: Embryonic mouse skin punch assay: short-term treatment of pre-existing BCC-like structures; type: cell-based
# Method: Day 17.5 embryonic skin punches from transgenic Patched pathway reporter mice were cultured in the presence of Shh protein for 7 days. The Shh protein was removed at the end of the 7 days. The skin punches were then exposed to vehicle or 1 or 5 μM D for 5 hours on days 7 and 9. After each exposure to vehicle or D, the vehicle or D was washed off and the skin punches were cultured again in the presence of Shh protein. Cultures were analyzed by X-gal staining after 10 days in vitro to assess the activity of the Patched pathway.
# [2] = test system: Shh-induced BCC-like structures; experiment: Embryonic mouse skin punch assay: long-term treatment of pre-existing BCC-like structures; type: cell-based
# Method: Day 17.5 embryonic skin punches from transgenic Patched pathway reporter mice were cultured in the presence of Shh protein for 7 days to allow for the development of BCC-like structures. The Shh protein was removed at the end of the 7 days. The cultures were then exposed to Shh protein plus either vehicle or D for 3 days. The cultures were analyzed histologically after 10 days to assess the formation of BCC-like structures that are indicative of activation of the Patched pathway.
# One possible mechanism for D-induced regression of BCC-like structures may be apoptosis of the activated cells. To investigate this possibility, parallel explants were exposed to 5 μM D for 2 days and were then stained by the terminal deoxynucleotidyltransferase mediated d-UTP nick end-labeling (TUNEL) method, which is used to detect apoptotic nuclei.
# [3] = test system: Patched pathway (ptc-lacZ reporter); experiment: Embryonic mouse skin punch assay: short-term pretreatment with D; type: cell-based; conditions: pretreated with D at 10, 20 and 50 μM for 5 hours, then Shh 6 days
# Method: Transgenic mouse-derived skin punches were treated with vehicle or D for 5 hours in the absence of Shh. After the pretreatment, the vehicle or D was removed. The skin punches were washed twice and then cultured in the presence of Shh for 6 days. At the end of the experiment, the skin punches were fixed and stained with X-gal to determine Patched pathway activity.
# [4] = test system: Patched pathway (ptc-lacZ reporter, Shh-induced BCC-like structures); experiment: Embryonic mouse skin punch assay: prolonged exposure to D; type: cell-based; conditions: Shh-treated skin punches, 6 days
# Text: A novel cell culture assay was established to determine the effects of D on activation of the Patched pathway in skin. In this system, activation of the Patched pathway results in increased expression of the ptc gene.
# To monitor the activity of the Patched pathway in embryonic skin, we cultured pieces of skin from transgenic Patched pathway reporter mice. These mice were genetically engineered to harbor a foreign gene (lacZ). The lacZ gene encodes a bacterial beta-galactosidase. The gene was inserted in the ptc locus but allowed for normal ptc function. Ptc activation in response to Shh-induced Patched pathway activation can then be monitored by the production of the lacZ gene product, beta-galactosidase, which is detectable by the enzymatic conversion of the substrate X-gal into a blue-colored reaction product.
# Day 17.5 embryonic skin was explanted as 2 mm circular punches from these transgenic reporter mice and cultured for 5 to 7 days in the presence of Shh protein (FIG. 34). […] To test the effect of D, skin punches were cultured for 6 days in the presence of both Shh protein and D (FIG. 35).
# [5] = test system: Ptc-null cells (gli-1 mRNA, Patched pathway); experiment: Ptc-null assay: gli-1 mRNA by RT-PCR and quantitative real-time PCR; type: cell-based, mouse; conditions: 3 days, 1 μM D
# Method: Ptc-null cells were cultured for 3 days in the presence of vehicle; jervine, a known Patched pathway antagonist (i) used here as a positive control; or 1 μM of compound D. Total ribonucleic acid (RNA) was isolated from the cells and used for reverse transcriptase-polymerase chain reaction (RT-PCR). […] The gli-1 and actin mRNA samples were then loaded on 1.5% agarose gel and were detected by staining with ethidium bromide. The same samples were analyzed by the quantitative real-time polymerase chain reaction method to quantify the levels of gli-1 MRNA.
# [6] = test system: Patched pathway / ultraviolet radiation-induced BCC tumors; experiment: Adult BCC mouse skin punch assay (UV-irradiated Ptc heterozygous transgenic mice); type: cell-based
# Method: Ptc heterozygous transgenic mice were irradiated 3 times weekly for 6 months, during which time many small, and often microscopic, BCC tumors developed. Four-mm diameter skin punch explants, presumably containing BCC structures, were cultured for 6 days in the presence of vehicle, the positive control […]), or 5 μM D. At the end of the experiment, the explants were analyzed by X-gal staining to detect the level of Patched pathway activity, by histology to determine the effect of treatment on the morphology of ultraviolet radiation-induced BCCs, and by quantifying the level of gli-1 mRNA expression to characterize the extent of pathway inhibition.
# [7] = test system: GLI-1 expression in human BCC; experiment: Human BCC explant culture, quantitative in situ hybridization; type: cell-based; conditions: 10 μM D, 3 days, vs vehicle
# Method: Specimens obtained from surgical procedures (such as Mohs surgery or curettage) were cultured on fresh, living, day 17 embryonic mouse dermis from which all epidermal cells have been removed by digestion using dispase. Since dispase treatment digests basement membrane components, Matrigel, a commercially available basement membrane preparation, was applied between the dermis and BCC. Cultures were assembled on top of a plastic grid and incubated for 3 days (with or without D at a concentration of 10 μM) in a medium suitable for the long-term culture of human skin. After culture, the samples were processed for routine histology and subjected to quantitative in situ hybridization. Briefly, 7μm sections of paraformaldehyde-fixed, paraffin-embedded tissue containing large basal cell islands were cleared, re-hydrated, digested with proteinase K, acetylated and hybridized with [^33P]- labeled RNA probes overnight. After high stringency post-hybridization washes, slides were exposed to a PhosphorImager screen in the dark at room temperature for 4-7 days. After developing, the [^33P]-signal was scanned using a Storm Scanner (Molecular Dynamics). Individual basal cell islands were selected and the signal quantified and expressed in average counts/pixel using ImageQuant 1.0 software.
# Hedgehog pathway = experiment: Gli-Luc assay (Hedgehog-responsive Luciferase reporter), 10T1/2(s12) cells with OCT-SHH; type: cell-based; conditions: OCT-SHH 0.3 μg/ml
# Method: Compounds to be tested are dissolved in DMSO to a concentration of 10 MM, and stored at −20° C. To activate the Hedgehog pathway in the assay cells, an octylated (lipid-modified) form of the N-terminal fragment of the Sonic Hedgehog protein (OCT-SHH) is used. This N-terminal SHH fragment is produced bacterially.
# Compounds may be tested in the “Gli-Luc” assay below, using the cell line 10T(s12), wherein the cells contain a Hedgehog-responsive reporter construct utilizing Luciferase as the reporter gene. In this way, Hedgehog pathway signaling activity can be measured via the Gli-Luc response.
# 10t1/2(s12) cells are plated in a 96-well micro-titer plate (MTP) at 20,000 cells/well in full medium [DMEM with 10% FBS]. Then plates are placed in the incubator for incubation overnight (O/N), at 37° C. and 5% CO2. After 24 h, the medium is replaced with Luciferase-assay medium (DMEM with 0.5% FBS). Compounds are thawed and diluted in assay medium at 3:1000 (about 300-fold) resulting in a starting concentration of about 30 μM.
# Subsequently, 150 μl of each 30 μM sample is added to the first wells (in triplicate). The MTP samples are then diluted at 3-fold dilutions to a total of seven wells, ultimately resulting in a regiment of seven dilutions in triplicate, for each compound. Next, the protein ligand OCT-SHH is diluted in Luciferase-assay medium and added to each well at a final concentration of 0.3 μg/ml. Plates are then returned to the incubator for further incubation O/N, at 37° C. and 5% CO2. After about 24 h, plates are removed from the incubator and the medium is aspirated/discarded. Wells are washed once with assay buffer [PBS +1 mM Mg^2+and 1 mM Ca^2+]. Then 50 μl of assay buffer is added to each well. The Luciferase assay reagent is prepared as described by the vendor (LucLite kit from Packard), and 50 μl is added to each well. Plates are incubated at room temperature (RT) for about 30 minutes after which the signals are read, again at RT, on a Topcount (Packard).
# [8] = short-term treatment, 5 hours on days 7 and 9
compound,measurement,setting,value
COc1cccc(CN(C(=O)CC(C)(C)C)C2CC(C(=O)N3CCNCC3)N(Cc3ccc4c(c3)OCO4)C2)c1 (centres unmarked) [Compound D],regression of existing Shh-induced BCC-like structures,[1]; 1 and 5 μM D for 5 hours on days 7 and 9,caused the regression
same,amount of X-gal staining,[1]; 1 or 5 μM D for 5 hours on days 7 and 9,reduced
same,GAPDH mRNA levels (general cytotoxicity),[1]; [8],relatively constant
same,gli-1 transcription (gli-1 mRNA levels),[1]; [8],completely downregulated
same,number of apoptotic nuclei within BCC-like structures (TUNEL),"[2]; 5 μM D, 2 days, vs vehicle",significantly higher
same,general cytotoxic effects on skin cells (histology),"[2]; D 1 or 5 μM, 3 days",did not appear to have general cytotoxic effects
same,size and number of Shh-induced BCC-like structures,"[2]; pre-existing structures, D 1 or 5 μM, 3 days, vs vehicle",significantly reduced
same,inhibition of Shh protein-induced upregulation of the Patched pathway (X-gal staining),[3],complete inhibition
same,X-gal staining,"[4]; 0.2 μM D, vs Shh alone",decreased
same,Patched pathway activity (lacZ reporter enzyme activity),[4]; 0.01 to 1 μM D,dose-dependent decrease
same,formation of BCC-like structures,[4]; histology,completely blocked
same,integrity of normal skin cells,[4]; histology,without affecting the integrity of normal skin cells
same,gli-1 mRNA levels (quantitative real-time PCR),[5],downregulated
same,"expression of gli-1 mRNA (RT-PCR, agarose gel)",[5]; vs vehicle,significantly decreased
same,number and size of established BCC structures (X-gal staining),"[6]; 5 μM D, 6 days, vs vehicle",decreased
same,level of gli-1 mRNA,"[6]; D 1 and 5 μM, vs vehicle",significantly inhibited
same,regression of ultraviolet radiation-induced BCC tumors (histology),"[6]; D, 6 days, vs vehicle",induced the regression
same,levels of housekeeping GAPDH (non-specific cytotoxicity),[6]; treated vs vehicle,no significant difference
same,level of GLI-1 expression (quantitative in situ hybridization),[7],greatly reduced
same,IC50,Hedgehog pathway,< 1 µM
